Assays:
Type in all cases: cell-based
PAR2 (HT-29 cells) [1] = molecular target: T1, PAR2 (HT-29 cells) (Homo sapiens, UniProt P55085); assay: Ca FLIPR TETRA assay, ANTAGONIST mode, activator 8 μM SLIGKV; details: HT-29 cells; activator 8 μM SLIGKV; Method A: maximal concentration of antagonist 0.1, 1 or 2 μM
T1 construct: host or cells: HT-29
T1 sequence (P55085 26-397): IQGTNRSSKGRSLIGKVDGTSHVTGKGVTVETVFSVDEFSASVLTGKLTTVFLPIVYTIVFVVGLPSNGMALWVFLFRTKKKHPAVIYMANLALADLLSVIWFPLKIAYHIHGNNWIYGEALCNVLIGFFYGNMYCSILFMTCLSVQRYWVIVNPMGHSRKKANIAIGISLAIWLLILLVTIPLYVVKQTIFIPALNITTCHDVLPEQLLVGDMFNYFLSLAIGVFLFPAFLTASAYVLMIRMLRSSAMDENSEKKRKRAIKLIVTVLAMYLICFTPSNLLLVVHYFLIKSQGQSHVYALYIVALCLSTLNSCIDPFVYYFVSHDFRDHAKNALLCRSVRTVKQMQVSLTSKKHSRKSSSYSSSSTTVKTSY
Summary of the method: (§1)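 Compounds are added to calcium 5-loaded HT-29 cells, read once for intrinsic Ca2+ activation, then incubated 30 min at room temperature. The same wells are then stimulated with a fixed final activator level and the Ca2+ response recorded on FLIPR Tetra.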

[2] = system: Thrombin-stimulated Ca2+ response in HT-29 cells; assay: Ca FLIPR TETRA assay, ANTAGONIST mode, activator 1 U/mL Thrombin; details: HT-29 cells, activator 1 U/mL Thrombin
Summary of the method: as §1

[3] = system: UTP-stimulated Ca2+ response in HT-29 cells; assay: Ca FLIPR TETRA assay, ANTAGONIST mode, activator 0.6 μM UTP; details: HT-29 cells, activator 0.6 μM UTP
Summary of the method: as §1

PAR2 (HT-29 cells) [4] = molecular target: T1, PAR2 (HT-29 cells); assay: Ca FLIPR TETRA assay, ANTAGONIST mode, activator 3.1 U/mL trypsin; details: HT-29 cells; activator 3.1 U/mL trypsin; Method A: maximal concentration of antagonist 0.1, 1 or 2 μM
Summary of the method: as §1

SMILES | IC50 (PAR2 (HT-29 cells) [1]) [nM] | IC50 ([2]; Homo sapiens) [nM] | IC50 ([3]; Homo sapiens) [nM] | IC50 (PAR2 (HT-29 cells) [4]) [nM] | IC50 [2] [nM] | IC50 [3] [nM]
Cc1ccc(N2CCN(C(=O)c3cc4nc(-c5ccc(Cl)c(F)c5)cc(C(C)(C)C)c4o3)C(C)(C)C2=O)nn1 [Example I-355] | 14 | > 2000 | > 2000 | 16 | – | –
Cn1cc(N2CCN(C(=O)c3cc4nc(-c5ccc(Cl)c(F)c5)cc(C(C)(C)C)c4o3)C(C)(C)C2=O)nn1 [Example I-356] | 12 | > 2000 | > 2000 | 14.1 | – | –
CC(C)(C)c1cc(-c2ccc(Cl)c(F)c2)nc2cc(C(=O)N3CCN(c4cccnn4)C(=O)C3(C)C)oc12 [Example I-357] | 8.3 | > 2000 | > 2000 | 10 | – | –
Cc1nccnc1N1CCN(C(=O)c2cc3nc(-c4ccc(Cl)c(F)c4)cc(C(C)(C)C)c3o2)C(C)(C)C1=O [Example I-359] | 37 | > 2000 | > 2000 | 43 | – | –
CC(C)(C)c1cc(-c2ccc(Cl)c(F)c2)nc2cc(C(=O)N3CCN(c4cnccn4)C(=O)C3(C)C)oc12 [Example I-360] | 2.4 | > 2000 | > 2000 | 3.7 | – | –
CC(C)(C)c1cc(-c2ccc(Cl)c(F)c2)nc2cc(C(=O)N3CCN(c4ncccn4)C(=O)C3(C)C)oc12 [Example I-361] | 2.8 | > 2000 | > 2000 | 4.6 | – | –
CC(C)(C)c1cc(-c2ccc(Cl)c(F)c2)nc2cc(C(=O)N3CCN(C(=O)C4CC5(CC(C(=O)O)C5)C4)C(=O)C3(C)C)oc12 (stereo not shown) [Example I-362] | 0.7 | – | – | 1 | > 1100 | > 1100
CC(C)(C)c1cc(-c2ccc(Cl)c(F)c2)nc2cc(C(=O)N3CCc4cnc(CC(=O)O)nc4C3(C)C)oc12 [Example I-363] | 0.6 | > 2000 | > 2000 | 0.9 | – | –
CC1(C)CCC(c2cc(C(C)(C)C)c3oc(C(=O)N4CCN(C(=O)C5CC6(CC(C(=O)O)C6)C5)CC4(C)C)cc3n2)CC1 (stereo not shown) [Example I-364] | 1.2 | > 2000 | 1700 | 1.2 | – | –
CC(C)(C)c1cc(-c2ccc(Cl)c(F)c2)nc2cc(C(=O)N3CCN(c4nc(C(=O)O)ccc4Cl)CC3(C)C)oc12 [Example I-365] | 0.2 | > 2000 | > 2000 | 0.3 | – | –
CC(C)(CCC(=O)N1CCN(C(=O)c2cc3nc(-c4ccc(Cl)cc4)cc(C(C)(C)C)c3o2)C(C)(C)C1)C(=O)O [Example I-366] | 0.8 | > 2000 | > 2000 | 1.1 | – | –
CC(C)(CCC(=O)N1CCN(C(=O)c2cc3nc(-c4ccc(Cl)c(F)c4)cc(C(C)(C)C)c3o2)C(C)(C)C1)C(=O)O [Example I-367] | 0.2 | > 1550 | > 1550 | 0.4 | – | –
CC(C)(C)c1cc(-c2ccc(Cl)cc2)nc2cc(C(=O)N3CCN(c4ncc(C(=O)O)cn4)C(=O)C3(C)C)oc12 [Example I-369] | 12 | > 2000 | > 2000 | 19 | – | –
CC(C)(C)c1cc(-c2ccc(Cl)cc2)nc2cc(C(=O)N3CCN(c4ncc(F)cn4)CC3(C)C)oc12 [Example I-370] | 17 | > 2000 | > 2000 | 17 | – | –
Cc1cnc(N2CCN(C(=O)c3cc4nc(-c5ccc(Cl)c(F)c5)cc(C(C)(C)C)c4o3)C(C)(C)C2=O)nc1 [Example I-371] | 5.2 | – | – | 5.2 | > 2000 | > 2000
CC(C)(C)c1cc(-c2ccc(Cl)c(F)c2)nc2cc(C(=O)N3CCN(C(=O)CC4(C(=O)O)CCC4)CC3(C)C)oc12 [Example I-372] | 0.2 | > 2000 | > 2000 | 0.3 | – | –
CC(C)[C@@H](CC(=O)O)C(=O)N1CCN(C(=O)c2cc3nc(-c4ccc(Cl)c(F)c4)cc(C(C)(C)C)c3o2)C(C)(C)C1 [Example I-373] | 0.6 | > 1100 | > 1100 | 0.8 | – | –
CC(C)[C@H](CC(=O)O)C(=O)N1CCN(C(=O)c2cc3nc(-c4ccc(Cl)c(F)c4)cc(C(C)(C)C)c3o2)C(C)(C)C1 [Example I-374] | 3.6 | > 2000 | > 2000 | 4.1 | – | –
CC(C)(C)c1cc(-c2ccc(Cl)c(F)c2)nc2cc(C(=O)N3CCN(C(=O)[C@@H]4CCC[C@H](C(=O)O)C4)CC3(C)C)oc12 [Example I-375] | 0.3 | > 2000 | > 2000 | 0.7 | – | –

SMILES | IC50 (PAR2 (HT-29 cells) [1]) [nM] | IC50 ([2]; Homo sapiens) [nM] | IC50 ([3]; Homo sapiens) [nM] | IC50 (PAR2 (HT-29 cells) [4]) [nM] | IC50 [2] [nM] | IC50 [3] [nM]
CC(C)(C)c1cc(-c2ccc(Cl)c(F)c2)nc2cc(C(=O)N3CCN(C(=O)CCP(C)(=O)O)CC3(C)C)oc12 [Example I-376] | 280 | > 2000 | > 2000 | 290 | – | –
CC1(C)CCC(c2cc(C(C)(C)C)c3oc(C(=O)N4CCN(C(=O)CC[C@H](N)C(=O)O)CC4(C)C)cc3n2)CC1 [Example I-377] | 400 | > 2000 | > 2000 | 470 | – | –
CC1(C)CCC(c2cc(C(C)(C)C)c3oc(C(=O)N4CCN(C(=O)CCCC(=O)O)CC4(C)C)cc3n2)CC1 [Example I-378] | 1.7 | > 2000 | > 2000 | 3.5 | – | –
CC1(C)CCC(c2cc(C(C)(C)C)c3oc(C(=O)N4CCN(C(=O)c5ccc(C(=O)O)cn5)CC4(C)C)cc3n2)CC1 [Example I-379] | 26 | > 2000 | > 2000 | 56 | – | –
CC1(C)CCC(c2cc(C(C)(C)C)c3oc(C(=O)N4CCN(C(=O)c5ccc(C(=O)O)nc5)CC4(C)C)cc3n2)CC1 [Example I-380] | 210 | > 2000 | > 2000 | 240 | – | –
CC(C)(C)c1cc(-c2ccc(Cl)c(F)c2)nc2cc(C(=O)N3CCN(c4ccc(F)c(C(=O)O)n4)CC3(C)C)oc12 [Example I-381] | 0.9 | > 2000 | > 2000 | 2.7 | – | –
Cc1coc(N2CCN(C(=O)c3cc4nc(C5CCC(C)(C)CC5)cc(C(C)(C)C)c4o3)C(C)(C)C2)n1 [Example I-382] | 120 | > 2000 | > 2000 | 100 | – | –
Cc1cccc(C2CCN(C(=O)c3cc4nc(-c5ccc(Cl)cc5)cc(C(C)(C)C)c4o3)C(C)(C)C2)n1 (stereo not shown) [Example I-383] | 19 | – | – | 12 | > 2000 | > 2000
Cc1nc(C(=O)O)cnc1C1CCN(C(=O)c2cc3nc(C4CCC(C)(C)CC4)cc(C(C)(C)C)c3o2)C(C)(C)C1 (stereo not shown) [Example I-384] | 2.5 | – | – | 2.2 | > 2000 | > 2000
Cc1nc(C)c(N2CCN(C(=O)c3cc4nc(-c5ccc(Cl)cc5)cc(C(C)(C)C)c4o3)C(C)(C)C2=O)o1 [Example I-386] | 50 | > 2000 | > 2000 | 40 | – | –
Cc1cncc(N2CCN(C(=O)c3cc4nc(-c5ccc(Cl)cc5)cc(C(C)(C)C)c4o3)C(C)(C)C2)n1 [Example I-387] | 12 | > 2000 | > 2000 | 10 | – | –
Cc1cnc(N2CCN(C(=O)c3cc4nc(-c5ccc(Cl)cc5)cc(C(C)(C)C)c4o3)C(C)(C)C2)nc1 [Example I-388] | 36 | > 2000 | > 2000 | 28.5 | – | –
Cc1nccc(N2CCN(C(=O)c3cc4nc(-c5ccc(Cl)cc5)cc(C(C)(C)C)c4o3)C(C)(C)C2)n1 [Example I-389] | 22 | > 2000 | > 2000 | 23 | – | –
Cc1cc(N2CCN(C(=O)c3cc4nc(-c5ccc(Cl)cc5)cc(C(C)(C)C)c4o3)C(C)(C)C2)ncn1 [Example I-390] | 19 | > 2000 | > 2000 | 12.5 | – | –
CC1(C)CCC(c2cc(C(C)(C)C)c3oc(C(=O)N4CCN(c5ncc(C(=O)O)cc5F)CC4(C)C)cc3n2)CC1 [Example I-391] | 0.4 | > 1010 | 1010 | 0.4 | – | –
Cc1nc(C(=O)O)cnc1N1CCN(C(=O)c2cc3nc(-c4ccc(Cl)cc4)cc(C(C)(C)C)c3o2)C(C)(C)C1 [Example I-392] | 3.8 | > 2000 | > 2000 | 2.8 | – | –
CC(C)(C)c1cc(-c2ccc(Cl)cc2)nc2cc(C(=O)N3CCN(c4ncc(C(=O)O)cc4F)CC3(C)C)oc12 [Example I-393] | 0.4 | > 1010 | 860 | 0.3 | – | –
Cc1cccnc1N1CCN(C(=O)c2cc3nc(-c4ccc(Cl)cc4)cc(C(C)(C)C)c3o2)C(C)(C)C1 [Example I-394] | 58 | > 2000 | > 2000 | 55 | – | –

From patent US20180057505A1, “BICYCLIC HETEROARYL COMPOUNDS USEFUL AS INHIBITORS OF THE PAR-2 SIGNALING PATHWAY” (VERTEX PHARMACEUTICALS INCORPORATED, priority 2015, published 2018)
